The target in data set [1] is T1, KRAS G12C protein (Homo sapiens, UniProt P01116, G12C).
T1 construct: H358 cells (ATCC, CRL-5807) expressing KRAS G12C protein; host or cells: H358 (NCI-H358) cells
Briefly: ERK protein phosphorylation assay (p-ERK) in H358 cells. In kind it is cell-based. Set-up: scale not given here. Particulars: H358 cells expressing KRAS G12C protein, 3 h incubation with compound; read-out: IC50, inhibiting phosphorylation of KRAS G12C protein-mediated downstream signaling (p-ERK). In a few lines:
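After paraformaldehyde fixation and methanol permeabilization, phospho-ERK detected by immunofluorescence read on an Odyssey CLx imager.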

Data set [2] has as its system H1373 cell line (K-RAS G12C). Briefly: cells. The note with it: for IC50: Homo sapiens, NCI-H1373, 96 h, 3D culture, CellTiter-Glo 3D, read on day 4, read-out: H1373 (K-RAS G12C) IC50; for Selectivity (fold number of mutant vs. wild type): PC-9 IC50 vs. H1373 IC50. In kind it is cell-based. The method, then:
(§1) a) On day 1, seed cells were placed in T75 a flask. b) On day 3, the medium was taken out and washed once with DPBS. c) Cells were trypsinized with 2 mL TrypLE™ Express enzyme at room temperature (RT) or 37° C. until cells detached. d) 5 mL of fresh medium was added to suspend the cells, and then the suspension was centrifuged at 1000 rpm and room temperature for 5 min. e) The supernatant was discarded, and the cells were resuspended in 5 mL of fresh medium and counted using Countess™ H. f) The cells were seeded back into the T75 flask for further culture or placed into an assay plate for 3D cell proliferation assay.
(§2) The cells were seeded at a density of 600 cells/well in a 384-well plate with 40 μL of medium per well and a final DMSO concentration of 0.5%. b) On day 4, a 3D CTG reagent was added to each well, followed by shaking at room temperature for 1 h. c) The signals were recorded using Envision.
(§3) a) Robustness was examined using 0.5% DMSO and data of blank control medium: H=mean (DMSO); L=mean (medium); SD (H)=STDEV (DMSO); SD (L)=STDEV (medium);
(§4) Y=peak valley value+(peak top value−peak valley value)/(1+10^((Log IC50−X)×HillSlope));
(§5) X: logarithm of compound concentration; Y: percent inhibition (% inhibition); Peak top and peak valley values: the plateau period units are the same as Y; log IC50: the same logarithmic unit as X; HillSlope: slope coefficient or Hill slope.

In data set [3] the test system is MIA PaCa-2 cell line (K-RAS G12C). The data set is described as follows: cells. Particulars: for IC50: Homo sapiens, MIA PaCa-2, 96 h, 3D culture, CellTiter-Glo 3D, read on day 4, read-out: MIA PaCa-2 (K-RAS G12C) IC50; for Selectivity (fold number of mutant vs. wild type): PC-9 IC50 vs. MIA PaCa-2 IC50. The format is cell-based. The method, then:
as §1, §2, §3, §4, §5

The subject of data set [4] is PC-9 cell line (K-RAS wild type). The data set is described as follows: cells. The format is cell-based. Particulars: Homo sapiens, PC-9, 96 h; 3D culture, CellTiter-Glo 3D, read on day 4. The method, then: as §1, §2, §3, §4, §5
(ATP-based viability assays read luminescence as a measure of living cells.)

Data set [5] deals with H358 cell line (K-RAS G12C). Briefly: cells. In kind it is cell-based, human. The note with it: for IC50: Homo sapiens, NCI-H358, 96 h, 3D culture, CellTiter-Glo 3D, read on day 4, read-out: H358 (K-RAS G12C) IC50; for Selectivity (fold number of mutant vs. wild type): PC-9 IC50 vs. H358 IC50. The protocol: as §1, §2, §3, §4, §5
Data set [6] in a line: in vitro. Particulars: microsomes, pH 7.4. The protocol:
To examine the in vitro metabolic stability of the test compounds in liver microsomes of different species, representative compounds were selected, and their stability was evaluated by measuring the concentration of the test compounds in the incubation system using LC/MS/MS and calculating their intrinsic clearance in the microsome system.
The method is specifically as follows: each compound was first dissolved in DMSO to prepare a 200 μM working solution and added to the system solution at the time of testing to form a solution with a final concentration of 1 μM.
The microsomes were stored in a −80° C. freezer.
Preparation of incubation system: an incubation system was prepared as described in the table below.
25 μL, of NADPH or phosphate buffered saline was transferred to the incubation system described above, and 2 μL, of 200 μM of the test compound or verapamil was added. The sample with NADPH added was prepared in duplicate; the NADPH negative sample was prepared in single parallel. 30 μL, of suspension was taken at 0.5, 5, 15, 30 and 60 minutes. The reaction system was terminated by adding 180 μL, of acetonitrile containing an internal standard and vortexed for 10 min. […] 100 μL, of the supernatant was transferred to a feeding plate, and 100 μL, of purified water was added. The mixture was well mixed for UPLC-MS/MS analysis.
The results based on the data were obtained by calculation according to the peak area ratio, and the peak area was detected through an extracted ion chromatogram.
The slope value (k) was determined by linear fitting of the natural logarithm of drug elimination percentage over time.

Data set [7] in a line: Stability test in human plasma. The note with it: for Remaining percentage (%) 0 min / Remaining percentage (%) 30 min / Remaining percentage (%) 60 min / Remaining percentage (%) 120 min / Remaining percentage (%) 180 min / Remaining percentage (%) 240 min: human plasma, 37° C.; for half-life at 5 μM: human, plasma.

SMILES strings stand for the structures. Some results are limits rather than exact numbers.

T1 sequence (P01116 1-188 isoform P01116-2 G12C): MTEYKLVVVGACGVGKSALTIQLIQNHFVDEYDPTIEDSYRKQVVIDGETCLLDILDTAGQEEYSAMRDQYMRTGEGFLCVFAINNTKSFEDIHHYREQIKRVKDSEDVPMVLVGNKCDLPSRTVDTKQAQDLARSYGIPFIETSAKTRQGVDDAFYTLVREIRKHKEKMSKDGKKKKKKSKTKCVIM

For `[2H]C([2H])([2H])c1cccc2cccc(N3CCc4c(nc(OC[C@@H]5CCCN5C)nc4N4CCN(C(=O)C=C)[C@@H](CC#N)C4)C3)c12` [Compound 1, 2-((S)-1-acryloyl-4-(7-(8-(methyl-d3)naphthalen-1-yl)-2-(((S)-1-methylpyrrolidin-2-yl)methoxy)-5,6,7,8-tetrahydropyrido[3,4-d]pyrimidin-4-yl)piperazin-2-yl)acetonitrile], the IC50 in data set [1] is less than 1000 nM. Moreover, in data set [2], the IC50 stood at 0.68 nM and the “Selectivity (fold number of mutant vs. wild type)” value stood at 7074 fold. In data set [3], the IC50 amounted to 0.49 nM and the “Selectivity (fold number of mutant vs. wild type)” value turned out to be 9816 fold. Further, in data set [4], the IC50 worked out at 4810 nM. In data set [5], the IC50 came to 0.55 nM and the “Selectivity (fold number of mutant vs. wild type)” value was 8745 fold. In data set [6] (ICR (CD-1), mouse), this compound displayed a half-life at 1 μM of 20.9 min and a microsomal CLint at 1 μM of 66.5 µL/min/mg. In data set [6] (human), this compound registered a half-life at 1 μM of 29.3 min and a microsomal CLint at 1 μM of 47.3 µL/min/mg. Besides, in data set [7], the “Remaining percentage (%) 0 min” value was found to be 100.00%, the “Remaining percentage (%) 30 min” value is 92.80%, the “Remaining percentage (%) 60 min” value is 76.27% and the “Remaining percentage (%) 120 min” value is 58.94%. Moreover, in data set [7], the “Remaining percentage (%) 180 min” value is listed as 39.27%, the “Remaining percentage (%) 240 min” value is recorded as 25.75% and the half-life at 5 μM is 122 min.

In the case of `[2H]C([2H])([2H])N1CCC[C@H]1COc1nc2c(c(N3CCN(C(=O)C=C)[C@@H](CC#N)C3)n1)CCN(c1cccc3cccc(C)c13)C2` [Compound 42, 2-((S)-1-acryloyl-4-(7-(8-methylnaphthalen-1-yl)-2-(((S)-1-(methyl-d3)pyrrolidin-2-yl)methoxy)-5,6,7,8-tetrahydropyrido[3,4-d]pyrimidin-4-yl)piperazin-2-yl)acetonitrile], the IC50 in data set [1] is less than 1000 nM. For the same compound, in data set [2], the IC50 is 0.26 nM and the “Selectivity (fold number of mutant vs. wild type)” value was 9115 fold. Also, in data set [3], the IC50 is 0.51 nM and the “Selectivity (fold number of mutant vs. wild type)” value is on record as 4647 fold. In data set [4], this compound showed an IC50 of 2370 nM. For the same compound, in data set [5], the IC50 is 0.62 nM and the “Selectivity (fold number of mutant vs. wild type)” value stood at 3823 fold. In data set [6] (ICR (CD-1), mouse), the half-life at 1 μM came to 22.8 min and the microsomal CLint at 1 μM was determined as 60.9 µL/min/mg. In addition, in data set [6] (human), the half-life at 1 μM turned out to be 27.2 min and the microsomal CLint at 1 μM turned out to be 51 µL/min/mg. Further, in data set [7], the “Remaining percentage (%) 0 min” value is listed as 100.00%, the “Remaining percentage (%) 30 min” value worked out at 90.36%, the “Remaining percentage (%) 60 min” value is 77.31% and the “Remaining percentage (%) 120 min” value is given as 57.19%. For the same compound, in data set [7], the “Remaining percentage (%) 180 min” value was determined as 36.19%, the “Remaining percentage (%) 240 min” value is 27.49% and the half-life at 5 μM came out at 123 min.

A word on the IC50: it is the point on the concentration scale where inhibition reaches its midpoint. The term half-life denotes the time in which the quantity being followed falls by half. The microsomal CLint is the rate of metabolic loss divided by the concentration.

The record behind these values is US20230257374A1, “NOVEL KRAS G12C PROTEIN INHIBITOR, PREPARATION METHOD THEREFOR, AND USE THEREOF” (INNOVENT BIOLOGICS (SUZHOU) CO., LTD., priority 2019, published 2023).
